# In paper PMC11672637, “7-O-Carboxylic Acid-Substituted 3-O-Alkyl Difluoroquercetin; An Aztreonam-Potentiating Agent Against Carbapenemase-Producing Pseudomonas aeruginosa Through Simultaneous Inhibition of Metallo-β-Lactamase and Efflux Pump” (Antibiotics, 2024):
# Like-named read-outs stand apart in the source and are kept apart here.
# What was measured:
# Format in all cases: cell-based, P. aeruginosa
# [1] = system: PA-039, blaNDM; assay: MIC / checkerboard with ATM; set-up: key to Susceptibility category: S: susceptible; I: intermediate; R: resistant; conditions: PA-039
# [2] = system: ATM-Susceptible CPPA (n = 11); assay: MIC distribution over clinical isolates; conditions: Pseudomonas aeruginosa
# [3] = system: PA-036, blaNDM; assay: MIC / checkerboard with ATM; set-up: key to Susceptibility category: S: susceptible; I: intermediate; R: resistant; conditions: PA-036
# [4] = system: PA-009, blaGES; assay: MIC / checkerboard with ATM; set-up: key to Susceptibility category: S: susceptible; I: intermediate; R: resistant
# [5] = system: All CPPA (n = 26); assay: MIC distribution over clinical isolates; conditions: Pseudomonas aeruginosa
# [6] = system: PA-029, blaIMP; assay: MIC / checkerboard with ATM; set-up: key to Susceptibility category: S: susceptible; I: intermediate; R: resistant; conditions: for MIC: Pseudomonas aeruginosa
# [7] = system: PA-044, blaNDM; assay: MIC / checkerboard with ATM; set-up: key to Susceptibility category: S: susceptible; I: intermediate; R: resistant
# [8] = system: PA-037, blaIMP/NDM; assay: MIC / checkerboard with ATM; set-up: key to Susceptibility category: S: susceptible; I: intermediate; R: resistant; conditions: for MIC: Pseudomonas aeruginosa
# [9] = system: PA-038, blaNDM; assay: MIC / checkerboard with ATM; set-up: key to Susceptibility category: S: susceptible; I: intermediate; R: resistant; conditions: PA-038
# [10] = system: PA-035, blaGES; assay: MIC / checkerboard with ATM; set-up: key to Susceptibility category: S: susceptible; I: intermediate; R: resistant; conditions: for MIC: Pseudomonas aeruginosa
# [11] = system: PA-030, blaIMP; assay: MIC / checkerboard with ATM; set-up: key to Susceptibility category: S: susceptible; I: intermediate; R: resistant; conditions: PA-030
# [12] = system: PA-028, blaNDM; assay: MIC / checkerboard with ATM; set-up: key to Susceptibility category: S: susceptible; I: intermediate; R: resistant; conditions: for MIC: Pseudomonas aeruginosa
# [13] = read-out: MIC50 of ATM, 5 at 0 mg/L
# [14] = read-out: MIC90 of ATM, 5 at 0 mg/L
smiles,measurement,setting,value
"C[C@H]1[C@H](NC(=O)/C(=N\OC(C)(C)C(=O)O)c2csc(N)n2)C(=O)N1S(=O)(=O)O [ATM, aztreonam]",Susceptibility to ATM,[1]; ATM alone,"I (I (intermediate, MIC = 16 mg/L))"
same,Susceptibility category,[1]; Table S2,R
same,MIC50,[2]; [13],4 µg/mL
same,MIC90,[2]; [14],8 µg/mL
same,Susceptibility to ATM,[3]; ATM alone,"I (I (intermediate, MIC = 16 mg/L))"
same,Susceptibility category,[3]; Table S2,I
same,Susceptibility to ATM,"[4]; PA-009, ATM alone","R (R (resistant, MIC ≥ 32 mg/L))"
same,Susceptibility category,"[4]; PA-009, Table S2",R
same,MIC,"[4]; Pseudomonas aeruginosa, read-out: MIC of ATM, PA-009, ATM alone (5 at 0 mg/L)",32 µg/mL
same,MIC50,[5]; [13],16 µg/mL
same,MIC90,[5]; [14],32 µg/mL
same,Susceptibility to ATM,"[6]; PA-029, ATM alone","R (R (resistant, MIC ≥ 32 mg/L))"
same,Susceptibility category,"[6]; PA-029, Table S2",R
same,MIC,"[6]; PA-029, Table S2, read-out: MIC value",32 µg/mL
same,MIC,"[6]; read-out: MIC of ATM, PA-029, ATM alone (5 at 0 mg/L)",32 µg/mL
same,Susceptibility to ATM,"[7]; PA-044, ATM alone","I (I (intermediate, MIC = 16 mg/L))"
same,Susceptibility category,"[7]; PA-044, Table S2",I
same,MIC,"[7]; Pseudomonas aeruginosa, read-out: MIC of ATM, PA-044, ATM alone (5 at 0 mg/L)",16 µg/mL
same,Susceptibility to ATM,"[8]; PA-037, ATM alone","S (S (sensitive, MIC ≤ 8 mg/L))"
same,Susceptibility category,"[8]; PA-037, Table S2",S
same,MIC,"[8]; PA-037, Table S2, read-out: MIC value",2 µg/mL
same,MIC,"[8]; read-out: MIC of ATM, PA-037, ATM alone (5 at 0 mg/L)",4 µg/mL
same,Susceptibility to ATM,[9]; ATM alone,"I (I (intermediate, MIC = 16 mg/L))"
same,Susceptibility category,[9]; Table S2,I
same,Susceptibility to ATM,"[10]; PA-035, ATM alone","S (S (sensitive, MIC ≤ 8 mg/L))"
same,Susceptibility category,"[10]; PA-035, Table S2",S
same,MIC,"[10]; PA-035, Table S2, read-out: MIC value",8 µg/mL
same,MIC,"[10]; read-out: MIC of ATM, PA-035, ATM alone (5 at 0 mg/L)",8 µg/mL
same,Susceptibility to ATM,[11]; ATM alone,"R (R (resistant, MIC ≥ 32 mg/L))"
same,Susceptibility category,[11]; Table S2,R
same,MIC,"[11]; Pseudomonas aeruginosa, Table S2, read-out: MIC value",32 µg/mL
same,Susceptibility to ATM,"[12]; PA-028, ATM alone","S (S (sensitive, MIC ≤ 8 mg/L))"
same,Susceptibility category,"[12]; PA-028, Table S2",S
same,MIC,"[12]; PA-028, Table S2, read-out: MIC value",4 µg/mL
same,MIC,"[12]; read-out: MIC of ATM, PA-028, ATM alone (5 at 0 mg/L)",8 µg/mL
